Like-named read-outs stand apart in the source and are kept apart here.
How the values were obtained:
P. falciparum Dd2 = assay: SYBR green I asexual blood stage proliferation assay (96 h); format: cell-based, Plasmodium falciparum; conditions: for IC50 / Emax: Plasmodium falciparum
[1] = system: P. falciparum Dd2 (PfLuc) line expressing firefly luciferase, asexual blood stage; assay: microbe, parasite or virus in culture; format: cell-based, Plasmodium falciparum
[2] = DD2, Sybr Green I, 11-pt dose response, 96hr, read-out: CDD P. falciparum Sybr Green I ABS 11-pt Reconfirmation Dose Response (96hr): IC50
[3] = DD2, Sybr Green I, 11-pt dose response, 96hr, read-out: CDD P. falciparum Sybr Green I ABS 11-pt Reconfirmation Dose Response (96hr): Maximum inhibition (%)
[4] = Plasmodium falciparum, DD2, read-out: CDD P. falciparum Luciferase ABS 11-pt Reconfirmation Dose Response (48hr): IC50 (μM), 11-pt dose response, 48hr
[5] = Plasmodium falciparum, DD2, 8-pt dose response, 96hr, read-out: CDD P. falciparum Luciferase ABS 8-pt Reconfirmation Dose Response (96hr): IC50
[6] = Plasmodium falciparum, DD2, 8-pt dose response, 96hr, read-out: CDD P. falciparum Luciferase ABS 8-pt Reconfirmation Dose Response (96hr): Maximum inhibition (%)
[7] = Plasmodium falciparum, DD2, 11-pt dose response, 48hr, read-out: CDD P. falciparum Luciferase ABS 11-pt Reconfirmation Dose Response (48hr): Maximum inhibition (%)
[8] = Plasmodium falciparum, DD2, 11-pt dose response, 96hr, read-out: CDD P. falciparum Luciferase ABS 11-pt Reconfirmation Dose Response (96hr): IC50
[9] = Plasmodium falciparum, DD2, 11-pt dose response, 96hr, read-out: CDD P. falciparum Luciferase ABS 11-pt Reconfirmation Dose Response (96hr): Maximum inhibition (%)
[10] = DD2, 11-pt dose response, 96hr, read-out: P. falciparum Sybr Green I ABS 11-pt Reconfirmation Dose Response (96hr): IC50
[11] = DD2, 11-pt dose response, 96hr, read-out: P. falciparum Sybr Green I ABS 11-pt Reconfirmation Dose Response (96hr): Maximum inhibition (%)
[12] = Plasmodium falciparum, DD2, read-out: P. falciparum Luciferase ABS 11-pt Reconfirmation Dose Response (48hr): IC50, 11-pt dose response, 48hr
[13] = Plasmodium falciparum, DD2, 8-pt dose response, 96hr, read-out: P. falciparum Luciferase ABS 8-pt Reconfirmation Dose Response (96hr): IC50
[14] = Plasmodium falciparum, DD2, 8-pt dose response, 96hr, read-out: P. falciparum Luciferase ABS 8-pt Reconfirmation Dose Response (96hr): Maximum inhibition (%)
[15] = Plasmodium falciparum, DD2, 11-pt dose response, 96hr, read-out: P. falciparum Luciferase ABS 11-pt Reconfirmation Dose Response (96hr): IC50
[16] = Plasmodium falciparum, DD2, 11-pt dose response, 96hr, read-out: P. falciparum Luciferase ABS 11-pt Reconfirmation Dose Response (96hr): Maximum inhibition (%)
[17] = Plasmodium falciparum, DD2, 11-pt dose response, 48hr, read-out: P. falciparum Luciferase ABS 11-pt Reconfirmation Dose Response (48hr): Maximum inhibition (%)

## COc1cc(CNCC(O)c2ccc(F)c(F)c2)cc2c1OCO2 (centres unmarked) [DDD00408586]
P. falciparum Dd2; [2]
  IC50: 1.89 µM
P. falciparum Dd2; [3]
  Emax: 97.2%
[1]; [4]
  IC50: 2.05 µM
[1]; [5]
  IC50: 0.55 µM
[1]; [6]
  Emax: 90.7%
[1]; [7]
  Emax: 96.5%
[1]; [8]
  IC50: 1.22 µM
[1]; [9]
  Emax: 99.5%

## CC[C@H]1CN2CC[C@H]1C[C@@H]2CNCc1ccc(OC(F)(F)F)cc1 [DDD01025218]
P. falciparum Dd2; [2]
  IC50: 4.16 µM
P. falciparum Dd2; [3]
  Emax: 89.4%
[1]; [4]
  IC50: 2.91 µM
[1]; [5]
  IC50: 1.07 µM
[1]; [6]
  Emax: 92.1%
[1]; [7]
  Emax: 93%
[1]; [8]
  IC50: > 1.39 µM
[1]; [9]
  Emax: 100%

## COc1ccc2[nH]c(C[C@@H]3C[C@@H](C(C)C)[C@H](CN(C)C)C=C3C)nc2c1 [DDD01025345]
P. falciparum Dd2; [2]
  IC50: 3.63 µM
P. falciparum Dd2; [3]
  Emax: 67.2%
[1]; [4]
  IC50: 12 µM
[1]; [5]
  IC50: 0.59 µM
[1]; [6]
  Emax: 88.6%
[1]; [7]
  Emax: 66.8%
[1]; [8]
  IC50: 1.53 µM
[1]; [9]
  Emax: 91.5%

## CCC1CN(CC(=O)NCCN2CCCCC2)c2ccccc2S1 (centres unmarked) [DDD01025850]
P. falciparum Dd2; [2]
  IC50: 7.99 µM
P. falciparum Dd2; [3]
  Emax: 74.7%
[1]; [4]
  IC50: 5.56 µM
[1]; [5]
  IC50: 1.1 µM
[1]; [6]
  Emax: 87.2%
[1]; [7]
  Emax: 55.4%
[1]; [8]
  IC50: 2.56 µM
[1]; [9]
  Emax: 83.2%

## CN1CC[C@H](N(Cc2ccccc2)Cc2ccccc2)C[C@H](O)C1 [DDD01026217]
P. falciparum Dd2; [2]
  IC50: 7.31 µM
P. falciparum Dd2; [3]
  Emax: 73.4%
[1]; [4]
  IC50: > 4.16 µM
[1]; [5]
  IC50: 0.91 µM
[1]; [6]
  Emax: 80.7%
[1]; [7]
  Emax: 69.3%
[1]; [8]
  IC50: > 4.16 µM
[1]; [9]
  Emax: 93.7%

## Cc1ccc(C(CCNCCCN(C)C)C2CCOC(C)(C)C2)cc1 (centres unmarked) [DDD01026662]
P. falciparum Dd2; [2]
  IC50: 1.57 µM
P. falciparum Dd2; [3]
  Emax: 97.5%
[1]; [4]
  IC50: 7.59 µM
[1]; [5]
  IC50: 0.76 µM
[1]; [6]
  Emax: 96.2%
[1]; [7]
  Emax: 95.3%
[1]; [8]
  IC50: 5.89 µM
[1]; [9]
  Emax: 98.8%

## CN(C)CCCNCCC(Cc1ccccc1)C1CCOC(C)(C)C1 (centres unmarked) [DDD01026664, CN(C)CCCNCCC(Cc1ccccc1)C1CCOC(C)(C)C1]
P. falciparum Dd2; Dd2, 96 h
  CDD P. falciparum Sybr Green I ABS Dd2 Dose Response: Maximum measured (%): 98.8%
P. falciparum Dd2; DD2, 96 h, read-out: CDD P. falciparum Sybr Green I ABS Dd2 Dose Response: IC50
  IC50: 0.251 µM
[1]; Plasmodium falciparum, DD2, read-out: CDD P. falciparum Luc 11pt dose response (96hr, n=2): IC50 (μM), 96hr, 11-point, n=2
  IC50: 0.11 µM
[1]; Plasmodium falciparum, DD2, read-out: CDD P. falciparum Luciferase 11pt dose response (48hr, n=2): IC50 (μM), 48hr, 11-point, n=2
  IC50: 0.405 µM
[1]; Plasmodium falciparum, DD2, 48hr, 11-point, read-out: CDD P. falciparum Luciferase ABS 11-pt Reconfirmation Dose Response (48hr): Maximum inhibition (%)
  Emax: 98.1%
[1]; Plasmodium falciparum, DD2, 96hr, 11-point, read-out: CDD P. falciparum Luciferase ABS 11-pt Reconfirmation Dose Response (96hr): Maximum inhibition (%)
  Emax: 101%

## Cc1ncc(CNCCO)c2cc(C(=O)c3ccc(Br)cc3)oc12 [DDD01027290]
P. falciparum Dd2; [10]
  IC50: 3.32 µM
P. falciparum Dd2; [11]
  Emax: 63.7%
[1]; [12]
  IC50: > 12.5 µM
[1]; [13]
  IC50: 1.35 µM
[1]; [14]
  Emax: 90.8%
[1]; [15]
  IC50: 1.63 µM
[1]; [16]
  Emax: 98.3%

## O=S(=O)(NCC(c1ccsc1)N1CCCCCC1)c1cccs1 (centres unmarked) [DDD01027501]
P. falciparum Dd2; [10]
  IC50: 7.79 µM
P. falciparum Dd2; [11]
  Emax: 69.9%
[1]; [12]
  IC50: > 12.5 µM
[1]; [13]
  IC50: 1.94 µM
[1]; [14]
  Emax: 83.7%
[1]; [17]
  Emax: 44%
[1]; [15]
  IC50: 8.75 µM

## COc1cccc(OC)c1CN1CC(=O)N(c2ccc(C)cc2)CC1C (centres unmarked) [DDD01252418]
[1]; [12]
  IC50: 3.67 µM
[1]; [13]
  IC50: 1.26 µM
[1]; [14]
  Emax: 89.5%
[1]; [15]
  IC50: 1.8 µM
[1]; [16]
  Emax: 93.6%

## Cc1nc(-c2cc(Cl)c3c(c2)CC(CN)O3)c[nH]1 (centres unmarked) [DDD01252814]
[1]; [13]
  IC50: 2.18 µM
[1]; [14]
  Emax: 88.7%

## CCC[C@H]1CN(c2nc(CO)cs2)C[C@@H]1NC(=O)C1(COC)CC1 [DDD01253377]
[1]; [13]
  IC50: 1.81 µM
[1]; [14]
  Emax: 80.7%

## Cc1cc(S(=O)(=O)NCC2CNCCOC2)c(C)cc1Cl (centres unmarked) [DDD01253448]
[1]; [12]
  IC50: > 4.16 µM
[1]; [13]
  IC50: 1.24 µM
[1]; [14]
  Emax: 89.3%
[1]; [17]
  Emax: 24.9%
[1]; [15]
  IC50: 1.64 µM
[1]; [16]
  Emax: 89%

## Cc1cccnc1CC(C)NC1Cc2ccccc2C1 (centres unmarked) [DDD01255733]
[1]; [13]
  IC50: 1.76 µM
[1]; [14]
  Emax: 81.8%

## Cc1c(C(=O)N2CCC(N3CCCCC3)CC2)n(C)c2ccc(Cl)cc12 [DDD01255900]
[1]; [4]
  IC50: 3.56 µM
[1]; [5]
  IC50: 1.11 µM
[1]; [6]
  Emax: 93.8%
[1]; [7]
  Emax: 96.3%
[1]; [8]
  IC50: 1.7 µM
[1]; [9]
  Emax: 98.9%

## c1ccc2sc(N3CCCN(c4ncnc5c4CCNC5)CC3)nc2c1 [DDD01257073]
[1]; [13]
  IC50: 1.83 µM
[1]; [14]
  Emax: 84%

## O=C(c1ccc(F)c(Cl)c1)N1C[C@H]2CC[C@@H](C1)N(Cc1ccccc1)C2 [DDD01257805]
[1]; [12]
  IC50: 5.31 µM
[1]; [13]
  IC50: 1.16 µM
[1]; [14]
  Emax: 85.8%
[1]; [17]
  Emax: 91.8%
[1]; [15]
  IC50: 2.39 µM
[1]; [16]
  Emax: 97.8%

## Cc1cc(F)ccc1CN1CCC(O)(CN2CCCCC2)C1 (centres unmarked) [DDD01258113]
[1]; [13]
  IC50: 1.22 µM
[1]; [14]
  Emax: 83.7%

## CCC1CN(C(=O)c2ccc(Cl)cc2O)CCN1C(C)C (centres unmarked) [DDD01258121]
[1]; [13]
  IC50: 2.57 µM
[1]; [14]
  Emax: 80.5%

## CN1CCCC(c2cccc(Cc3ccccc3Cl)n2)C1 (centres unmarked) [DDD01270191]
[1]; [13]
  IC50: 1.72 µM
[1]; [14]
  Emax: 80.2%

## CCN1CCCC(CNC(=O)C2(c3cc(C)cc(C)c3)CCC2)C1 (centres unmarked) [DDD01296287]
[1]; [13]
  IC50: 1.39 µM

## CC(O)CN1CCC(CNCc2ccc(OC(F)(F)F)cc2)CC1 (centres unmarked) [DDD01297562]
[1]; [13]
  IC50: 1.25 µM
[1]; [14]
  Emax: 90.4%

## CN1CCCC1CNC(=O)CCCOc1cccc(Br)c1 (centres unmarked) [DDD01297989]
[1]; [13]
  IC50: 1.4 µM
[1]; [14]
  Emax: 83.9%

## CCN(CC)C(CNC(=O)c1c(C)noc1C(C)C)c1ccsc1 (centres unmarked) [DDD01298744]
[1]; [5]
  IC50: 0.96 µM
[1]; [6]
  Emax: 85.7%

## c1cnnc(N2CCCC2CNc2ncnc3sccc23)c1 (centres unmarked) [DDD01299704]
[1]; [13]
  IC50: 1.61 µM
[1]; [14]
  Emax: 92.3%

## CN(Cc1ncc(C(C)(C)C)o1)CC1CCCN1c1cccnn1 (centres unmarked) [DDD01301524]
[1]; [13]
  IC50: 1.81 µM

## C[C@@H]1CC[C@H]2[C@@H](C)C(=O)O[C@@H]3O[C@@]4(C)CC[C@@H]1[C@]32OO4 [artemisinin, reference compound]
[1]; Plasmodium falciparum, DD2, 96 h, control at 10 μM, read-out: mean inhibition of positive control in ABS primary screen
  inhibition at 10 µM: 99.6 ± 1.03%

## CCC[C@@H]1C[C@@H](C(=O)N[C@@H]([C@H]2O[C@H](SC)[C@H](O)[C@@H](O)[C@H]2O)[C@H](C)Cl)N(C)C1 [clindamycin, reference compound]
P. falciparum Dd2; 96 h, Dd2, read-out: 96 h SYBR green ABS IC50
  IC50: > 10 µM

## Doxycycline [reference compound]
[1]; 96 h incubation, Dd2 luciferase, read-out: 96 hour Pfluc IC50
  IC50: 0.55 ± 0.2 µM
[1]; read-out: 48 hour Pfluc IC50, 48 h incubation, Dd2 luciferase
  IC50: 7.18 ± 1.59 µM
